The test relates to P388 leukemia ip, CD2F1 mice, survival T/C. As to the kind of experiment: NCI In Vivo Anticancer Drug Screen. Data for tumor model P388 Leukemia (intraperitoneal) in CD2F1 (CDF1) mice. To be noted: endpoint: median survival time, higher = longer survival. The gist of the method: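 Mice carrying the transplanted tumor received test compound or vehicle. Survival was recorded in each group, and the value is the treated-group measurement divided by that of the vehicle-treated control group.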

The mark [1] stands for this setting: dose: 50.0 mg/kg/injection, schedule: Q01DX009 (ip), vehicle: saline with Tween-80.
The mark [2] stands for this setting: dose: 100.0 mg/kg/injection, schedule: Q01DX009 (ip), vehicle: saline with Tween-80.
Where [3] appears, read: dose: 50.0 mg/kg/injection, schedule: Q01DX009 (ip), vehicle: Klucel (hydroxypropylcellulose) (HPC).
Setting [4] is: dose: 100.0 mg/kg/injection, schedule: Q01DX009 (ip), vehicle: Klucel (hydroxypropylcellulose) (HPC).
Setting [5] is: dose: 50.0 mg/kg/injection, schedule: Q01DX005 (ip), vehicle: Klucel (hydroxypropylcellulose) (HPC).
The mark [6] stands for this setting: dose: 100.0 mg/kg/injection, schedule: Q01DX005 (ip), vehicle: Klucel (hydroxypropylcellulose) (HPC).
Where [7] appears, read: dose: 200.0 mg/kg/injection, schedule: Q01DX005 (ip), vehicle: Klucel (hydroxypropylcellulose) (HPC).
The mark [8] stands for this setting: dose: 60.0 mg/kg/injection, schedule: Q01DX005 (ip), vehicle: saline with Tween-80.
[9] abbreviates: dose: 120.0 mg/kg/injection, schedule: Q01DX005 (ip), vehicle: saline with Tween-80.
Where [10] appears, read: dose: 50.0 mg/kg/injection, schedule: Q01DX005 (ip), vehicle: saline with Tween-80.
The mark [11] stands for this setting: dose: 100.0 mg/kg/injection, schedule: Q04DX003 (ip), vehicle: saline with Tween-80.
Where [12] appears, read: dose: 100.0 mg/kg/injection, schedule: Q01DX005 (ip), vehicle: saline with Tween-80.
[13] abbreviates: dose: 200.0 mg/kg/injection, schedule: Q01DX005 (ip), vehicle: saline with Tween-80.

Consider 24 compounds from PubChem BioAssay AID330 (DTP/NCI, 2004).

Each structure is given as a SMILES string. Values joined by “and” are separate entries in the source; they are usually repeats but may differ in a detail not shown here. Equal entries are not always repeated. Inconclusive results and toxic doses are left out.

For `CC1=NN(C(=O)c2ccncc2)C(=O)C1N=Nc1ccc2ccccc2c1` (stereo unspecified), the T/C was 101 % of control under setting [1] and 102 % of control under setting [2].
With `CNc1n[nH]c(-c2ccccc2)n1`, the T/C is, setting by setting: under setting [3], 101 % of control; under setting [4], 102 % of control; (dose: 200.0 mg/kg/injection, schedule: Q01DX009 (ip), vehicle: Klucel (hydroxypropylcellulose) (HPC)) 102 % of control.
For `O=C(Nc1ccccc1)Oc1ccc(/C=N/S(=O)(=O)c2cccc([N+](=O)[O-])c2)cc1`, the T/C under setting [1] was 96 % of control; the T/C under setting [2] is 98 % of control; the T/C (dose: 200.0 mg/kg/injection, schedule: Q01DX009 (ip), vehicle: saline with Tween-80) is 118 % of control.
As for `CCOc1cc2c(cc1C(C)c1ccc(OC)c(OC)c1)OCO2` (stereo unspecified), the T/C reads like this: under setting [5], 100 % of control; under setting [6], 105 % of control; under setting [7], 107 % of control.
As to `Nc1nc2c(c(=O)[nH]1)N(C=O)C(CNc1ccc(C(=O)N[C@@H](CCC(=O)O)C(=O)O)cc1)CN2` (stereo partly specified), the T/C was 108 % of control (dose: 125.0 mg/kg/injection, schedule: Q04DX003 (ip), vehicle: saline); 99 % of control (dose: 250.0 mg/kg/injection, schedule: Q04DX003 (ip), vehicle: saline); 99 % of control (dose: 500.0 mg/kg/injection, schedule: Q04DX003 (ip), vehicle: saline).
Take `CC(C)CC1CCCC12NC(=O)NC2=O` (stereo unspecified): the T/C was 97 % of control under setting [5], 89 % of control under setting [6] and 93 % of control under setting [7].
As for `CC(=O)Nc1ccc(S(=O)(=O)Nc2c(N)[nH]c(=S)[nH]c2=O)cc1`, the T/C under setting [8] was 97 % of control; the T/C under setting [9] is 98 % of control; the T/C (dose: 240.0 mg/kg/injection, schedule: Q01DX005 (ip), vehicle: saline with Tween-80) was 97 % of control.
Regarding `COSc1ccc(OC)cc1`, the T/C is 102 % of control (dose: 100.0 mg/kg/injection, schedule: Q04DX003 (ip), vehicle: saline) and 97 % of control (dose: 200.0 mg/kg/injection, schedule: Q04DX003 (ip), vehicle: saline).
Consider `C/C(=N\NC(=S)N1CCCC1)c1nccs1`, for which the T/C was 109 % of control (dose: 12.5 mg/kg/injection, schedule: Q01DX005 (ip), vehicle: saline with Tween-80); 104 % of control (dose: 25.0 mg/kg/injection, schedule: Q01DX005 (ip), vehicle: saline with Tween-80); 108 % of control and 114 % of control under setting [10].
In the case of `CN=C(NCCCOC)c1ccc(NC(=O)Nc2ccc(NC(=O)Nc3ccc(C(=NC)NCCCOC)cc3)cc2)cc1`, the T/C under setting [5] was 150 % of control.
As for `Cc1ccc2[nH]c(=O)oc(=O)c2c1`, the T/C reads like this: (dose: 25.0 mg/kg/injection, schedule: Q01DX009 (ip), vehicle: saline) 105 % of control; (dose: 50.0 mg/kg/injection, schedule: Q01DX009 (ip), vehicle: saline) 107 % of control; (dose: 50.0 mg/kg/injection, schedule: Q04DX003 (ip), vehicle: saline with Tween-80) 100 % of control; (dose: 100.0 mg/kg/injection, schedule: Q01DX009 (ip), vehicle: saline) 96 % of control; under setting [11], 108 % of control; (dose: 200.0 mg/kg/injection, schedule: Q01DX009 (ip), vehicle: saline) 110 % of control. Also, where the note is “dose: 200.0 mg/kg/injection, schedule: Q04DX003 (ip), vehicle: saline with Tween-80”, the T/C is 108 % of control.
On to `CC(=Nc1ccc(N(C)C)cc1)c1ccccc1`, for which the T/C is 98 % of control under setting [8] and 98 % of control under setting [9].
As for `CCN1C(=O)C(=NO)C(=O)N(CC)C1=S.CCN1C(=O)C(=N[O-])C(=O)N(CC)C1=S.CCN1C(=O)C(=N[O-])C(=O)N(CC)C1=S.[Fe+3]`, the T/C is, setting by setting: (dose: 100.0 mg/kg/injection, schedule: Q04DX002 (ip), vehicle: saline with Tween-80) 94 % of control; (dose: 200.0 mg/kg/injection, schedule: Q04DX002 (ip), vehicle: saline with Tween-80) 102 % of control.
As to `c1cc2cc3c(cc2cc1CC1NCCc2cc4c(cc21)OCO4)OCO3` (stereo unspecified), the T/C by setting is: (dose: 12.5 mg/kg/injection, schedule: Q01DX009 (ip), vehicle: Klucel (hydroxypropylcellulose) (HPC)) 100 % of control; (dose: 25.0 mg/kg/injection, schedule: Q01DX009 (ip), vehicle: Klucel (hydroxypropylcellulose) (HPC)) 91 % of control; under setting [3], 107 % of control; under setting [4], 91 % of control.
For the compound `O=C1c2ccccc2C(=O)C1(c1ccccn1)[N+](=O)[O-]`, the T/C was 110 % of control under setting [8] and 113 % of control under setting [9].
For `CC(=NCc1ccccc1)Nc1ccc(NC(=O)c2ccc(C(=O)Nc3ccc(NC(C)=NCc4ccccc4)cc3)cc2)cc1`, the T/C runs as follows: (dose: 25.0 mg/kg/injection, schedule: Q01DX005 (ip), vehicle: Klucel (hydroxypropylcellulose) (HPC)) 98 % of control; under setting [5], 95 % of control; under setting [6], 94 % of control; under setting [7], 99 % of control.
Take `CCCCN(CCCC)c1ccc(C(=N)c2ccc(N(C)C)cc2)cc1`: the T/C (dose: 6.25 mg/kg/injection, schedule: Q01DX005 (ip), vehicle: Klucel (hydroxypropylcellulose) (HPC)) is 106 % of control and the T/C (dose: 12.5 mg/kg/injection, schedule: Q01DX005 (ip), vehicle: Klucel (hydroxypropylcellulose) (HPC)) was 106 % of control.
In the case of `O=C1Nc2ccc3[nH]ncc3c2C1=O`, the T/C was 101 % of control under setting [10], 103 % of control under setting [12] and 109 % of control under setting [13].
As to `C1CC[N-]CC1.C1CC[N-]CC1.C1CC[N-]CC1.C1CC[N-]CC1.[Cl][Co][Cl]`, the T/C is, setting by setting: (dose: 25.0 mg/kg/injection, schedule: Q04DX003 (ip), vehicle: saline with Tween-80) 100 % of control; (dose: 33.0 mg/kg/injection, schedule: Q01DX009 (ip), vehicle: saline with Tween-80) 91 % of control; under setting [11], 118 % of control.
Regarding `CN(C)Cc1[nH]c2ccccc2c1Sc1ccccc1`, the T/C under setting [8] was 100 % of control and the T/C under setting [9] was 119 % of control.
As for `CN(C)P1(=O)OCC(C)(C)CN1c1ccccc1` (stereo unspecified), the T/C reads like this: (dose: 100.0 mg/kg/injection, schedule: Q04DX002 (ip), vehicle: saline) 96 % of control; (dose: 200.0 mg/kg/injection, schedule: Q04DX002 (ip), vehicle: saline) 95 % of control; (dose: 400.0 mg/kg/injection, schedule: Q04DX002 (ip), vehicle: saline) 100 % of control.
As to `CCOC(=O)Cc1csc(=S)n1Cc1ccccc1`, the T/C runs as follows: under setting [10], 103 % of control; under setting [12], 108 % of control; under setting [13], 95 % of control.
Consider `NC(CCCCNC(=O)OCCCCCOC(=O)NCCCCC(N)C(=O)O)C(=O)O` (stereo unspecified), for which the T/C is 95 % of control (dose: 50.0 mg/kg/injection, schedule: Q01DX009 (ip), vehicle: suspension in saline); 106 % of control (dose: 100.0 mg/kg/injection, schedule: Q01DX009 (ip), vehicle: suspension in saline); 104 % of control (dose: 200.0 mg/kg/injection, schedule: Q01DX009 (ip), vehicle: suspension in saline).
`COc1cccc2c1C(=O)c1c(O)c3c(c(O)c1C2=O)C[C@](O)(C(=O)CO)CC3OC1CC(N)C(OC2CCCCO2)C(C)O1` (stereo partly specified): the T/C is 122 % of control (dose: 0.78 mg/kg/injection, schedule: Q04DX003 (ip), vehicle: water); 153 % of control and 240 % of control (dose: 3.12 mg/kg/injection, schedule: Q04DX003 (ip), vehicle: water); 161 % of control (dose: 3.13 mg/kg/injection, schedule: Q04DX003 (ip), vehicle: water); 154 % of control (dose: 3.75 mg/kg/injection, schedule: Q01DX005 (ip), vehicle: water); 192 % of control and 200 % of control and 280 % of control (dose: 6.25 mg/kg/injection, schedule: Q04DX003 (ip), vehicle: water); 151 % of control (dose: 7.5 mg/kg/injection, schedule: Q01DX005 (ip), vehicle: water). The T/C (dose: 12.5 mg/kg/injection, schedule: Q04DX003 (ip), vehicle: water) was 154 % of control and 416 % of control; the T/C (dose: 15.0 mg/kg/injection, schedule: Q01DX005 (ip), vehicle: water) was 196 % of control; the T/C (dose: 25.0 mg/kg/injection, schedule: Q04DX003 (ip), vehicle: water) is 91 % of control; the T/C (dose: 50.0 mg/kg/injection, schedule: Q04DX003 (ip), vehicle: water) is 87 % of control.
